Measured values published in the NIST ThermoML archive (doi:10.1021/je700408x).
Numbers after ± are expanded uncertainties.

Settings: Liquid; for mass density: 303.15 K, 101.33 kPa, Pycnometric method; for vapor or sublimation pressure / Normal boiling temperature: Ebulliometric method (Recirculating still)

Row | SMILES | mass density [kg/m3] | vapor or sublimation pressure (345.45 K) [kPa] | Normal boiling temperature [°C] | vapor or sublimation pressure (417.05 K) [kPa] | vapor or sublimation pressure (355.05 K) [kPa] | vapor or sublimation pressure (460.95 K) [kPa] | vapor or sublimation pressure (391.95 K) [kPa] | vapor or sublimation pressure (357.75 K) [kPa]
1 | CC(Cl)(Cl)Cl [1,1,1-trichloroethane] | 1320.97 ± 9.8 | 95.3 ± 2 | 74.20 ± 0.41 | – | – | – | – | –
2 | ClC(Cl)C(Cl)Cl [1,1,2,2-tetrachloroethane] | 1578.59 ± 14 | – | 145.20 ± 0.41 | 95.3 ± 2 | – | – | – | –
3 | ClCCCl [1,2-dichloroethane] | 1238.41 ± 8.6 | – | 83.80 ± 0.41 | – | 95.3 ± 2 | – | – | –
4 | C[S+](C)[O-] [dimethyl sulfoxide] | 1090.4 ± 6.7 | – | 189.04 ± 0.41 | – | – | 95.3 ± 2 | – | –
5 | ClC(Cl)=C(Cl)Cl [tetrachloroethene] | 1606.39 ± 14 | – | 121.00 ± 0.41 | – | – | – | 95.3 ± 2 | –
6 | ClC=C(Cl)Cl [trichloroethene] | 1451.42 ± 12 | – | 87.10 ± 0.41 | – | – | – | – | 95.3 ± 2
